Assay results reported in PMC11720353, “Clove Essential Oil as a Source of Antitumoral Compounds Capable of Crossing the Blood–Brain Barrier: A Focus on the Effects of β-Caryophyllene and Eugenol in a Glioblastoma Cell Line” (International Journal of Molecular Sciences, 2024).

Legend:
Type in all cases: cell-based, human
HMC3 cells [1] = experiment: Quantitative real-time PCR of mRNA levels; conditions: 24 h
Method: (§1) An analysis of the genes involved in angiogenesis, tumor progression and proliferation were performed. In particular, we analyzed the genes involved in the cell cycle and in three different apoptotic pathways: B-cell lymphoma-2 (BCL2), Bcl-2-like protein 1 (BCL2L1), Bcl-2 Associated X-protein (BAX), BCL2 Antagonist/Killer 1 (BAK-1) and Caspase 9 (CASP9) as the key genes of the intrinsic mitochondrial pathway; and Phosphatase and tensin homolog (PTEN), Tumor protein p53 (TP53), Murine double minute 2 (MDM2), Cyclin-dependent kinase 4 (CDK4) and Vascular endothelial growth factor A (VEGFA) mRNA levels were assessed by quantitative real-time PCR (qRT-PCR). HMC3 and U87 cells were seeded with a density of 1 × 10^6 cells per well and incubated for 24 h at 37 °C and 5% CO2. Thereafter, the cells were treated either with EU (200 μM) or BCA (125 μM) alone and in combination (EU 200 μM + BCA 125 μM). Total RNA was extracted using the TripleXtractor solution (GRISP, Lisbon, Portugal) according to the manufacturer's protocol. RNA was converted into cDNA through the […] Synthesis Supermix (GRISP, Lisbon, Portugal). Each optimized reaction was performed using […] SYBR Green Mastermix 2X with […], Lisbon, Portugal) and subjected to the amplification protocol described by the manufacturer, using a melting temperature of 60 °C. The relative gene expression was determined by the 2^-ΔΔCt method and normalized on Glyceraldehyde-3-Phosphate Dehydrogenase (GAPDH), which was the endogenous reference and relative to the untreated cells (control condition).

U87 cells [2] = experiment: Quantitative real-time PCR of mRNA levels; conditions: 24 h
Method: as §1

HMC3 cells [3] = experiment: Inflammatory cytokines in conditioned media (Luminex/BioPlex); conditions: EU 200 µM, BCA 125 µM, alone or in combination, 24 h
Method: (§2) In order to determine the impact of BCA and/or EU on inflammatory cytokines levels, cytokine expression analyses (L-6, IL-4, IL-8 and TNF-α) were performed using a customized detection panel purchased from Bio-techne (Minneapolis, MN, USA). The cells were seeded, in triplicate, into 24-well culture plates (8 × 10^4 cells/well). After 24 h, the medium was replaced and the cells were treated either with the vehicle (ethanol) or with different concentrations of EO single compounds alone (EU: 2 µM, 20 µM, 200 µM; and BCA: 1.25 µM, 12.5 µM, 125 µM) or in combination (EU 2 µM + BCA 1.25 µM; EU 20 µM + BCA 12.5 µM; and EU 200 µM + BCA 125 µM). The final concentration of ethanol in the cell medium was kept lower than 0.1%. The ethanol 0.1%-treated cells were considered the control condition. After the 24 h treatment, supernatants were collected and centrifuged at 4,000× g for 10 min, and the samples were analyzed with the BioPlex 200 instrument (BioRad®, Hercules, CA, USA) following the manufacturer’s protocol.

U87 cells [4] = experiment: as above; conditions: EU 200 µM, BCA 125 µM, alone or in combination, 24 h
Method: as §2

U87 cells [5] = experiment: Cell death assay (Annexin V/PI, flow cytometry); conditions: EU 200 µM, BCA 125 µM, alone or in combination, 24 h
Method: (§3) HMC3 and U87 cells were seeded in duplicate into 12-well plates (10 × 10^4 cells/well). After 24 h of incubation at 37 °C and 5% CO2, the medium was replaced, and the cells were treated either with EU (200 µM) or BCA (125 µM), alone and in combination (EU 200 µM + BCA 125 µM). Following the 24 h treatment, the cells were co-stained with AV-APC and PI according to the manufacturer’s protocol (Biolegend, San Diego, CA, USA). Briefly, the cells were resuspended in binding buffer (100 µL) and incubated with AV-APC solution (5 µL) and PI solution (2 µL) for 15 min at room temperature. Then, the cells were diluted in a binding buffer (400 µL). A six-parameter, four-color FACSCalibur flow cytometer (Becton Dickinson, San Jose, CA, USA) was used, and at least 10,000 events were collected by acquisition using CellQuest software (Becton Dickinson, San Jose, CA, USA). The results were analyzed with the Paint-a-Gate software and expressed in percentage (%).

HMC3 cells [6] = experiment: Cell death assay (Annexin V/PI, flow cytometry); conditions: EU 200 µM, BCA 125 µM, alone or in combination, 24 h
Method: as §3

U87 cells [7] = experiment: Metabolic activity (Alamar blue) assay and HSA synergy analysis; conditions: EU 2.5, 25, 200 µM or BCA 1.25, 12.5, 125 µM alone, 24-72 h
Method: To evaluate the cytotoxic/antiproliferative potential of BCA and/or EU, the U87 and HMC3 cells were seeded, in triplicate, into 48-well culture plates (4 × 10^4 cells/well). After 24 h, the medium was replaced, and the cells were treated either with the vehicle (ethanol) or with different concentrations of EO single molecules, diluted in ethanol alone ([…]; BCA: 1.25 µM, µM, 125 µM) or in combination (EU 2 µM and BCA 1.25 µM; EU 20 µM and BCA 12.5 µM; and EU 200 µM and BCA 125 µM) in order to evaluate the possible synergistic effects. The final concentration of ethanol in the cell medium was kept lower than 0.1%. Non-treated cells were considered the control condition. Metabolic activity was evaluated using a modified Alamar blue® assay, as previously described. […] After 2 h of incubation at 5% CO2 and 37 °C, the absorbance was read at 570 and 600 nm in a BioTeck (BioTek Instruments, Inc., Winooski, VT, USA). The absorbance results were obtained using the Gen5 program. The metabolic activity was then calculated by the following equation: Metabolicactivity %=A570−A600 oftreated cells/A570−A600 ofcontrol cells×100 All data were analyzed using the software GraphPad Prism v.9.00 (GraphPad Software, San Diego, CA, USA). All in vitro experiments were performed in triplicate, and the acquired results were expressed as means ± SEM. […]

[8] = EU 200 µM, BCA 125 µM, alone or in combination

C=C1CC/C=C(\C)CC[C@@H]2[C@@H]1CC2(C)C [BCA, β-Caryophyllene]
PTEN mRNA expression, change vs control (HMC3 cells [1]; EU 200 µM or BCA 125 µM): no effect
BAK1 mRNA expression, change vs control (HMC3 cells [1]; [8]): +59.8%
BCL2 mRNA expression, change vs control (HMC3 cells [1]; [8]): −56.2%
CDK4 mRNA levels, change vs control (HMC3 cells [1]; [8]): no effects
MDM2 mRNA expression, change vs control (HMC3 cells [1]; [8]): +34.2%
TP53 mRNA expression, change vs control (HMC3 cells [1]; [8]): +155.5%
VEGFA mRNA expression, change vs control (HMC3 cells [1]; [8]): −57%
PTEN mRNA expression, change vs control (U87 cells [2]; EU 200 µM or BCA 125 µM): +171.8%
BAK1 mRNA expression, change vs control (U87 cells [2]; [8]): +129.6%
BAX mRNA expression, change vs control (U87 cells [2]; [8]): +35.0%
BCL2L1 mRNA expression, change vs control (U87 cells [2]; [8]): −42.2%
BCL2 mRNA expression, change vs control (U87 cells [2]; [8]): −54.8%
CASP9 mRNA expression, change vs control (U87 cells [2]; [8]): +98.5%
MDM2 mRNA expression, change vs control (U87 cells [2]; [8]): −49.3%
TP53 mRNA expression, change vs control (U87 cells [2]; [8]): +506.4%
VEGFA mRNA expression, change vs control (U87 cells [2]; [8]): −56.5%
CDK4 mRNA levels, change vs control (U87 cells [2]; EU 200 µM, BCA 125 µM, alone or in combination, normalized to GAPDH): no effects
IL-4 levels, change vs control (HMC3 cells [3]): −52.2%
IL-6 secretion, change vs control (HMC3 cells [3]): −55.5%
IL-8 secretion, change vs control (HMC3 cells [3]): −38.0%
TNF-α secretion, change vs control (HMC3 cells [3]): −49.7%
IL-4 levels, change vs control (U87 cells [4]): −29.3%
IL-6 secretion, change vs control (U87 cells [4]): None of the treatments modulated
IL-8 secretion, change vs control (U87 cells [4]): unaffected
live (viable) cells, change with respect to control (U87 cells [5]): did not affect
cell viability (HMC3 cells [6]): did not affect
reduction in metabolic activity, single compounds (U87 cells [7]): No reduction
